In US9055743B2, “Alpha, beta-unsaturated imines” (BAYER INTELLECTUAL PROPERTY GMBH, priority 2010, dated 2015):

Key:
Type in all cases: in vivo
[1] = tested on: larvae of the mustard beetle (Phaedon cochleariae); assay: Phaedon test (PHAECO spray treatment); conditions: 500 g/ha, spray, after 7 days
Description: Phaedon Test ([…] Spray Treatment) Solvents: 78.0 parts by weight of acetone • • 1.5 parts by weight of dimethylformamide Emulsifier: 0.5 part by weight of alkylaryl polyglycol ether To produce a suitable preparation of active compound, 1 part by weight of active compound is mixed with the stated amounts of solvents and emulsifiers, and the concentrate is diluted with emulsifier-containing water to the desired concentration. Discs of Chinese cabbage leaves (Brassica pekinensis) are sprayed with an active compound preparation of the desired concentration and, after drying, populated with larvae of the mustard beetle (Phaedon cochleariae).

[2] = tested on: caterpillars of the army worm (Spodoptera frugiperda); assay: Spodoptera frugiperda test (SPODFR spray treatment); conditions: 500 g/ha, spray, after 7 days
Description: Spodoptera frugiperda Test (SPODFR Spray Treatment) Solvents: 78.0 parts by weight of acetone • • 1.5 parts by weight of dimethylformamide Emulsifier: 0.5 part by weight of alkylaryl polyglycol ether
(§1) To produce a suitable preparation of active compound, 1 part by weight of active compound is mixed with the stated amounts of solvents and emulsifier, and the concentrate is diluted with emulsifier-containing water to the desired concentration.
Discs of maize leaves (Zea mays) are sprayed with an active compound preparation of the desired concentration and, after drying, populated with caterpillars of the army worm (Spodoptera frugiperda) besetzt.
After 7 days, the activity in % is determined. 100% means that all caterpillars have been killed; 0% means that none of the caterpillars have been killed.

[3] = tested on: greenhouse red spider mite (Tetranychus urticae); assay: Tetranychus test; OP-resistant (TETRUR spray treatment); conditions: 500 g/ha, spray, after 6 days
Description: Tetranychus Test; OP-Resistant (TETRUR Spray Treatment) Solvents: 78.0 parts by weight of acetone • • 1.5 parts by weight of dimethylformamide Emulsifier: 0.5 part by weight of alkylaryl polyglycol ether
as §1
Discs of bean leaves (Phaseolus vulgaris) infested by all stages of the greenhouse red spider mite (Tetranychus urticae) are sprayed with an active compound preparation of the desired concentration.
After 6 days, the activity in % is determined. 100% means that all spider mites have been killed; 0% means that none of the spider mites have been killed.

[4] = tested on: green peach aphid (Myzus persicae); assay: Myzus test (MYZUPE spray treatment); conditions: 500 g/ha, spray, after 6 days
Description: Myzus Test (MYZUPE Spray Treatment) Solvents: 78 parts by weight of acetone • • 1.5 parts by weight of dimethylformamide Emulsifier: 0.5 part by weight of alkylaryl polyglycol ether
as §1
Discs of Chinese cabbage leaves (Brassica pekinensis) which are infested by all stages of the green peach aphid (Myzus persicae) are sprayed with an active compound preparation of the desired concentration.
After 6 days, the activity in % is determined. 100% means that all aphids have been killed; 0% means that none of the aphids have been killed.

[5] = tested on: cat fleas (Ctenocephalides felis, fully sensitive laboratory strain); assay: Contact test against fleas in-vitro (CTECFE contact); conditions: 500 g/ha, after 48 h
Description: Contact Test Against Fleas In-Vitro (CTECFE Contact)
An amount of 0.9 mg of active compound is weighed out, and 1 ml of acetone is added.
Of this acetone solution, either […] are transferred directly into roll-necked test tubes or an aliquot is diluted with 4 parts of acetone 1:5. For its part, 250 μl of this dilution are pipetted into roll-necked test tubes, or the dilution is diluted further, etc., until the desired number of dilution steps is reached.
The roll-necked test tubes containing the solution of the active compound in acetone are immediately coated in a fume cupboard by 2 h of swing rotation at 30 rpm. After evaporation of the solvent, the active compound contained in the acetone gives, at the highest concentration tested, an active compound content of 500 g/ha (or 500 μg/dm^2) on the surface of the test tube.
10-20 Adult cat fleas (Ctenocephalides felis, fully sensitive laboratory strain) anesthetized with CO2 are transferred into the test tubes prepared in this manner, and the test tubes are closed with a plastic roll-necked lid provided with fine holes.
The test tubes are stored vertically at room temperature and humidity for 24 or 48 h. After 24 and 48 h, the activity of the active compound applied is determined by comparison with an acetone-treated control. Here, an observed normal activity for all fleas corresponds to 0% activity, a strongly restricted or uncoordinated (knock-down) movement or death of all fleas corresponds to 100% activity.

[6] = tested on: Anopheles gambiae (homocygus kdr); assay: Anopheles test (ANPHGB surface treatment); conditions: exposition 30 minutes; for knock-down activity: 100 mg/m^2, two hours after contact; for activity (mortality in %): 100 mg/m^2, 24 hours after contact
Description: Anopheles Test (ANPHGB Surface Treatment) Solvent: Acetone
To produce a suitable preparation of active compound, the active compound is dissolved in acetone (2 mg/ml). The active compound preparation is pipetted onto a glazed tile and, after drying, adult mosquitoes of the species Anopheles gambiae (homocygus kdr) are placed onto the treated tile. The exposition time is 30 minutes.
Two hours after contact to the treated surface, the knock-down proportion of the test animals in % is determined.
24 hours after contact to the treated surface, the mortality in % is determined. Here, 100% means that all mosquitoes have been killed; 0% means that none of the mosquitoes has been killed.

Structure (SMILES)	activity (beetle larvae killed) [1] [%]	activity (caterpillars killed) [2] [%]	activity (spider mites killed) [3] [%]	activity (aphids killed) [4] [%]	further results
Cc1cccc(N=C2C(=CSc3ccccc3)C(C)c3ccccc32)c1 (mixture of isomers) [Example 1-12]	100	100	100	–	–
CC1C(=CSc2ccccc2)C(=Nc2ccccc2)c2ccccc21 (mixture of isomers) [Example 1-13]	100	100	100	100	–
C(Sc1ccccc1)=C1C(=Nc2ccccc2)c2ccccc2C1c1ccccc1 (mixture of isomers) [Example 1-19]	100	100	100	100	–
COc1ccc(N=C2C(=CSc3ccccc3)C(C)c3ccccc32)cc1 (mixture of isomers) [Example 1-22]	–	100	90	–	activity against cat fleas [5]: 100%
Cc1ccc(N=C2C(=CSc3ccc(F)cc3)C(C)c3cc(Cl)ccc32)cc1 (mixture of isomers) [Example 1-50]	–	–	–	–	knock-down activity [6]: 85%
Cc1ccc2c(c1)C(C)C(=CSc1ccc(F)cc1)C2=Nc1ccc(C)c(C)c1 (mixture of isomers) [Example 1-71]	100	100	100	90	knock-down activity [6]: 100%
Cc1cc(C)cc(N=C2C(=CSc3ccc(F)cc3)C(C)c3cc(C)ccc32)c1 (mixture of isomers) [Example 1-72]	–	100	–	–	–
Cc1ccc(N=C2C(=CSc3ccc(F)cc3)CCc3cc(Cl)sc32)cc1 (mixture of isomers) [Example 1-91]	100	100	100	90	–
CCOC1=CC(=CSc2ccccc2)C(=Nc2ccc(C)cc2)CC1 (mixture of isomers) [Example 1-97]	–	–	100	–	–
Cc1ccc(N=C2CCC(OC(C)C)=CC2=CSc2ccc(F)cc2)cc1 (mixture of isomers) [Example 1-99]	–	–	100	–	–
Cc1ccc(N=C2c3ccccc3C(c3ccccc3)C2C(Sc2ccccc2)Sc2ccccc2)cc1 (mixture of isomers) [Example 2-9]	100	100	100	100	–
c1ccc(N=C2c3ccccc3C(c3ccccc3)C2C(Sc2ccccc2)Sc2ccccc2)cc1 (mixture of isomers) [Example 2-10]	–	100	100	100	–
Cc1ccc(N=C2C(=CSc3ccc(F)cc3)COc3cc(-c4ccccc4)ccc32)cc1 [Example 1-24]	–	–	–	90	–
Cc1ccc(N=C2C(=CSc3ccc(F)cc3)C(C)Oc3ccc(F)cc32)cc1 (stereo not shown) [Example 1-25]	–	100	–	–	–
Cc1ccc(N=C2C(=CSc3ccc(F)cc3)CCc3c(C)cc(C)cc32)cc1 [Example 1-30]	–	100	80	–	–
COc1cccc2c1CCC(=CSc1ccc(F)cc1)C2=Nc1ccc(C)cc1 [Example 1-31]	–	100	100	–	activity against cat fleas [5]: 100%
CC(C)c1ccc(N=C2C(=CSc3ccc(F)cc3)CCc3ccccc32)cc1 [Example 1-42]	–	–	80	–	–
Cc1ccc(N=C2C(Br)=CC(C)(C)CC2=CSc2ccc(F)cc2)cc1 [Example 1-49]	–	100	–	90	–

Structure (SMILES)	activity (beetle larvae killed) [1] [%]	activity (caterpillars killed) [2] [%]	activity (spider mites killed) [3] [%]	activity (aphids killed) [4] [%]	further results
COc1ccc2c(c1C)OCC(=CSc1ccc(F)cc1)C2=Nc1ccc(C)cc1 [Example 1-52]	–	–	–	–	activity (mortality in %) [6]: 85%
Cc1ccc(N=C2C(=CSc3ccccc3)CCC/C2=C\Sc2ccccc2)cc1 [Example 1-60, N-{2,6-Bis[(phenylsulphanyl)methylene]cyclohexylidene}-4-methylaniline]	–	–	–	–	pest or weed control at 500 g/ha ([1]; Phaedon cochleariae, 168 h, read-out: activity (beetle larvae killed)): 100%; pest or weed control at 500 g/ha ([2]; Spodoptera frugiperda, 168 h, read-out: activity (caterpillars killed)): 100%
Cc1ccc(N=C2C=CC(C)(C)CC2=CSc2ccc(F)cc2)cc1C [Example 1-64]	–	100	80	80	knock-down activity [6]: 100%
Cc1ccc(N=C2C(=CSc3ccc(F)cc3)CCc3sc(Cl)cc32)cc1 [Example 1-66]	100	100	–	–	–
Cc1cc(C)cc(N=C2C(=CSc3ccc(F)cc3)CCc3ccccc32)c1 [Example 1-67]	100	100	–	80	–
Cc1ccc(N=C2C(=CSc3ccc(F)cc3)CCc3ccccc32)cc1C#N [Example 1-68]	100	100	100	–	–
COc1ccc(SC=C2CCc3ccccc3C2=Nc2ccc(C)cc2)cc1 [Example 1-73]	–	–	80	–	–
Cc1ccc(N=C2C(=CSc3ccc(F)cc3)COc3cc(C(C)(C)C)ccc32)cc1 [Example 1-75]	–	100	–	–	–
Cc1ccc(N=C2C(=CSc3ccc(F)cc3)CCc3cc(C)cc(C)c32)cc1 [Example 1-77]	–	–	–	–	activity (mortality in %) [6]: 80%
Cc1ccc(N=C2C(=CSc3cccc(F)c3)CCc3ccccc32)cc1 [Example 1-78]	100	100	100	100	–
Cc1ccc(N=C2C(=CSC3CCCC3)CCc3ccccc32)cc1 [Example 1-87]	100	–	100	100	knock-down activity [6]: 80%
Cc1ccc(N=C2C(=CSc3ccc(F)cc3)CCc3ccccc32)cc1F [Example 1-89]	100	100	100	–	knock-down activity [6]: 100%
Cc1ccc(N=C2C(=CSc3ccc(F)cc3)CCc3c2ccc2ccccc32)cc1F [Example 1-92]	100	100	100	–	–
CC1=CC(C)(C)CC(=CSc2ccc(F)cc2)C1=Nc1ccc(C)cc1 [Example 1-93]	–	–	90	–	–
COc1ccc(N=C2c3ccccc3CCC2C(Sc2ccccc2)Sc2ccccc2)cc1 (stereo not shown) [Example 2-3]	–	–	–	–	activity (mortality in %) [6]: 95%
Cc1ccc(N=C2c3ccc(F)cc3CCC2C(Sc2ccc(F)cc2)Sc2ccc(F)cc2)cc1 (stereo not shown) [Example 2-6]	–	–	–	–	activity (mortality in %) [6]: 95%
Cc1ccc(N=C2c3cc(F)ccc3CCC2C(Sc2ccc(F)cc2)Sc2ccc(F)cc2)cc1 (stereo not shown) [Example 2-8]	–	100	90	–	–
